Results reported in a melting point compilation (Tetko et al.; mined from patent text by program, amines drawn as free bases though some values may be those of a salt).

melting point	Compound
260 °C	CCCCc1nc(O)c(CC(=O)O)c(=O)n1Cc1ccc(C(=O)O)cc1
168 to 169 °C	CCc1nc2cnc3ccc(OCc4ccccc4)cc3c2n1C
112 to 114 °C	CCOC(=O)CC(=O)c1cc2cc(F)c(Cl)cc2nc1Cl
183 °C	O=c1oc(=O)n(-c2ccccc2)c2ccccc12
52 to 55 °C	CCCCCCCCCCCCCCCCCCOc1cccc(CC(=O)N(CC(=O)OC)CC(=O)OC)c1
88 to 89 °C	CCOC(=O)C(C)(C)C(=O)C(Oc1ccc(Cl)cc1)n1cncn1 (configuration not stated)
248 to 251 °C	COCc1cnc2nc(N)nc(N)c2n1
205 to 206 °C	CC1(C)OC(=O)Nc2ccc(/C(=C/C#N)c3ccccc3)cc21
134 °C	CCCC(=NOCC)C1=C(O)CC(c2c(C)c(C)c(O)c(C)c2C)CC1=O (configuration not stated)
141 to 143 °C	O=C1c2ccccc2C(=O)N1CCN(OCc1ccccc1)C(=S)Nc1c(F)cccc1F
188 to 190 °C	COc1c(N2CCC(CN)(CF)C2)c(F)cc2c(=O)c(C(=O)O)cn(C3CC3)c12 (configuration not stated)
132 °C	CCOC(=O)Nc1cc(Oc2ccc3ccccc3c2)c(C#N)cc1F
60 °C	CSc1c(S)c(SC)c(SC)c(SC)c1SC
> 250 °C	O=C(O)c1cc(Br)cc(C(=O)C=Cc2ccccc2)c1O
78 to 79 °C	CC(=O)C1=Cc2cc(Cl)cc(C)c2OC1
185 to 186 °C	Cc1ccc(C(=O)NCCN(C)C)cc1-n1c(C)cc(OCc2ccccc2CNC(=O)Nc2cc(C(C)(C)C)nn2-c2ccc(Cl)c(O)c2)c(Cl)c1=O
140 to 141 °C	CCOC(=O)C1=C(c2cccc(Cl)c2Cl)N(C(=O)OCC)C(=O)NC1C (configuration not stated)
84 to 85 °C	Cc1nn(C)c2nc(N(CC3CCC3)CC3CC3)c(CN(Cc3cc(C(F)(F)F)cc(C(F)(F)F)c3)c3nnn(C)n3)cc12
44 to 46 °C	C=CC1(CC(N)=O)CC(C)(C)CC(C)(C)C1
78 to 82 °C	O=C(OCc1cc(OCCCO)cc(OCCCO)c1)c1ccccc1
164 to 166 °C	COc1nc(Cl)nc(NC(C#N)C#N)n1
144 to 146 °C	Nc1ccc2c(S(=O)(=O)c3ccccc3)c[nH]c2c1
144 to 146 °C	Cc1nc(N2CCc3ccccc3CC2)c(C#N)c(=O)n1NCC(F)(F)F
192 to 194 °C	N#Cc1ccc(Oc2ccc3c(c2)CCNC3=O)nc1

melting point	Compound
189 to 191 °C	Clc1ccc(C#Cc2ccc(C#Cc3cc4ccccc4s3)s2)cc1
124 to 126 °C	O=C(O)CC1CCC(CCNS(=O)(=O)c2ccc(Br)cc2)CC1 (configuration not stated)
106 to 109 °C	CCCc1ccc(C(=O)O)cc1[N+](=O)[O-]
100 to 101 °C	CC(=O)On1c(C)csc1=S
60 to 62 °C	COc1cc(N)c(F)cc1Br
130 to 131 °C	O=C(O)CCc1cn(Cc2ccc(OCc3ccccc3)cc2)cc1-c1ccccc1
164 to 165 °C	CC(=O)c1cc(S(=O)(=O)c2cccc(F)c2)ccc1O
139 to 141 °C	COc1ccc2cc(NCc3ccc(OCc4ccccc4)cc3)ccc2c1
92 to 94 °C	CCCS(=O)c1nc(OS(C)(=O)=O)c(Cl)cc1Cl (configuration not stated)
109 to 111 °C	CC1=C(C)C(=O)N(C2CCC(O)CC2)C1=O (configuration not stated)
196 to 198 °C	CN(C)C=C1C[N+]([O-])=C(c2ccccc2Cl)c2cc(Cl)ccc2C1=O
76.8 °C	CCOC(=O)C=Cc1ccc(C(=O)Cl)cc1
215 to 217 °C	COc1ccc([C@H](Sc2ccccc2N)[C@@H](O)C(=O)Nc2ccccc2)cc1
164 to 166 °C	O=C1OCc2cc([N+](=O)[O-])c(Oc3ccc(F)cc3F)cc21
> 340 °C	N=C(N)c1ccc(N2CCN(c3ccc(OCC(=O)O)cc3)CC2)cc1
150 to 152 °C	CCOc1c2c(nc3c1cnn3CC)C(=O)c1ccccc1CC2
149 to 151 °C	O=C(Nc1ccc(C(F)(F)F)cc1)N1CC2CCc3ccccc3C2=N1 (configuration not stated)
157 to 159 °C	COc1ccc2c(c1)/C(=N\NC(N)=O)C(=O)N2CCN(C(C)C)C(C)C
126 to 127 °C	Cn1cnc2ccc(-c3nnc(SCc4cccc(C(F)(F)F)c4)o3)cc21
162 to 164 °C	COc1ccc(-c2nc(Sc3ccc(C(C)(C)C)cc3)n(C3CCCCO3)c2-c2ccc(OC)cc2)cc1 (configuration not stated)
145 to 147 °C	CSc1ccc(-c2cc(C(F)(F)F)nn2-c2ccc(C#N)cc2)cc1
173 to 174 °C	CCCCOC(=O)c1ccc(Nc2nc(Nc3ccc(C(=O)OCCCC)cc3)nc(-c3cccn3Cc3ccccc3)n2)cc1
369 °C	Cc1ccc(-n2nc3c4cc(Br)ccc4[nH]c(=O)n3c2=O)cc1
88 to 91 °C	O=S(=O)(c1ccncc1)C1CCNCC1

melting point	Compound
97 to 100 °C	C=CCNc1cnc(-c2ccccc2)c(-c2ccccc2)n1
215 to 216 °C	Cc1cc(C(=O)O)ccc1C(N)(CC1c2ccccc2Oc2ccccc21)C(=O)O (configuration not stated)
156 to 157 °C	Cc1ccc(C)c(-c2cccc(C=CC(=O)O)c2)c1
90 to 92 °C	S=c1nc2c(-c3ccccc3)cccn2c(=S)n1-c1ncccc1-c1ccccc1
169 °C	CN[C@@H]1CCN(c2ccc3c(NC(=O)CC4CCCCC4)c(Cl)ccc3n2)C1
182 to 185 °C	CCOC(=O)c1cnc2sc(CN3CCOCC3)c(C)c2c1O
197 to 198 °C	CCCCNC(=O)Nc1ccccc1C(=O)NCC1CCN(C(c2ccccc2)c2ccccc2)CC1
156 to 157 °C	C[C@@H](N)[C@](O)(Cn1cncn1)c1ccc(F)cc1F
160 to 164 °C	O=C(NCc1ccc([N+](=O)[O-])cn1)C(c1ccccc1)c1ccccc1
290 to 291 °C	Cc1cc(-c2nnn[nH]2)cc2c(=O)c3cccnc3oc12
128 to 130 °C	O=C1CCOc2cc(OCCn3ccnc3)ccc21
53 to 54 °C	CCOC(=O)c1cc2c(nc1C)CCCCC2
88 °C	CC1=CC(=NO)CC(c2cccc(Cl)c2)N1 (configuration not stated)
238 to 239 °C	N#Cc1cc(NC(=O)c2cc3ccccc3s2)ccc1N1CCN(CCO)CC1
119 to 126 °C	CCOC(=O)C(C#N)=CNc1ccc(-c2ccccc2)cn1
227 to 228 °C	CNC(=O)c1ccccc1Nc1nc(Nc2cc3c(cc2OC)N(C)C(=O)OCC3)ncc1Br
110 to 111 °C	O=C(CNC(=O)C1CCCCC1)c1ccco1
208 to 210 °C	Cc1oc(-c2ccccc2)nc1CCc1ccc(/C=C/C=C/C=C2OC(=O)NC2=O)cc1
115 to 118 °C	Cn1cc(CN2C(=O)C3(COc4cc5c(cc43)OCO5)c3ccccc32)ccc1=O (configuration not stated)
187 to 189 °C	COc1ccc(-c2cnn3c(-c4cccc(NC(=O)CC(C)C)c4)ccnc23)cc1C=O
70 to 80 °C	O=C(NC1(C(=O)O)CCCC1)OCc1ccccc1
142 to 144 °C	CCCC(=O)c1cnc2c(C=O)cccc2c1Nc1ccccc1C
153 to 154 °C	CC(C)(C)OC(=O)C(O)c1ccc2c(c1)OC(c1ccccc1)(c1ccccc1)O2 (configuration not stated)
101 to 102 °C	CSc1ccc(C(=O)Cc2ccccc2)cc1Cl

melting point	Compound
168 to 169 °C	CCOc1c(-c2ccc(O)c(OC)c2)oc2cc(OC)cc(O)c2c1=O
97.5 to 99.5 °C	C=CC(=O)N1Cc2cc(OC)ccc2SC(Cl)C1 (configuration not stated)
156 to 157 °C	CCOCCOC(=O)C(=O)Nc1nc(-c2cc3ccccc3oc2=O)cs1
118 to 119 °C	Cc1cc([N+](=O)[O-])ccc1N=C1SCC2(CCCC2)N1C1CCCC1
131 to 133 °C	O=C(NC(=CC(=O)[C@H](Cc1ccccc1)N(Cc1ccccc1)Cc1ccccc1)Cc1ccccc1)c1ccccc1
112 to 115 °C	CC(=Cc1ccccc1)CN1CCc2nc(N)sc2CC1
146 to 149 °C	Cc1cccc(-c2[nH]c(C(C)(C)C)nc2-c2cccc(-c3ccc(C(=O)NC4CCOCC4)cc3)c2)n1
202 to 204 °C	S=C1CSc2cc(Cl)ccc2N1
190 °C	Fc1ccccc1C1CCC(=S)Nc2ccc(Cl)cc21 (configuration not stated)
168 to 170 °C	O=[N+]([O-])c1ccc(-c2nc(-c3ccco3)no2)cc1
161 to 163 °C	COCOCc1nc2nccnc2c(=O)[nH]1
35 °C	CCCCCCCCCCC[C@@H](C[C@@H]1OC(=O)[C@H]1CCCCCC)OCCC(N)=O
167 to 169 °C	O=C1CCC(C(=O)N2CCN(CC(=O)N3CCOCC3)CC2)N1 (configuration not stated)
104 to 105 °C	Fc1ccc(-n2ncc3c2-c2ccccc2C3)cc1
145 to 150 °C	COC(=O)c1ccccc1S(=O)(=O)NC(=O)Nc1nc(C)cc(COC(C)=O)n1
110 °C	CCOc1ccc(-c2nnc(C#N)o2)cc1
61 to 63 °C	CCCCc1ccc2nc(Cl)cn2n1
161 to 162 °C	C[C@H](N)C(=O)N[C@@H](C)C(=O)NC(C)(Cc1ccccc1)c1ccccc1 (some centres not stated)
76 to 78 °C	COc1cnn(C2CCCCO2)c(=O)c1 (configuration not stated)
227 to 229 °C	COc1cccc(CNC(=O)c2nc3cccc(OCc4ccc(-c5nnn[nH]5)cc4)c3c(=O)[nH]2)c1
89 to 95 °C	CCCCCCCCCCCCCCCCc1c(O)c(CN(C)C(=O)Oc2cccc([N+](=O)[O-])c2)c(CCC)c(O)c1CN(C)C(=O)Oc1cccc([N+](=O)[O-])c1
92.5 to 93.5 °C	CCOC(=O)Cc1ccc(NC(=O)C(C)C)cc1
146 to 148 °C	CCOC(=O)c1c(C)cc(NC=O)c(C(=O)O)c1C
224 to 226 °C	Cn1ncc2c1CSc1cn[nH]c1-2

Compound	melting point
CN1Cc2c(C=NO)ncn2-c2ccc(F)cc2C1=O	247 to 250 °C
O=c1[nH]c2ccc(Cl)cc2c(=O)n1CCCN1CC=C(c2ccc(Cl)cc2)CC1	197 to 198 °C
CN1CC=C(c2c[nH]c3ccc(OS(=O)(=O)c4ccccc4)cc23)CC1	186 to 190 °C
O=C1Nc2ccc(Cl)cc2C(c2ccc3[nH]c(=O)n(CCCO)c3c2)=N[C@H]1Cc1ccccc1Cl	210 °C
CC(=O)N[C@H](CO)C(=O)NCc1ccc(N=[N+]=[N-])cc1	161 to 163 °C
COC(=O)COc1cc2c(c3c1c(C(=O)C(N)=O)c(C)n3Cc1ccccc1Br)CCC2	200 to 207 °C
